The source of these data is PubChem BioAssay AID330 (DTP/NCI, 2004).

The assay relates to P388 leukemia ip, CD2F1 mice, survival T/C. Nature of the assay: NCI In Vivo Anticancer Drug Screen. Data for tumor model P388 Leukemia (intraperitoneal) in CD2F1 (CDF1) mice. The following applies: endpoint: median survival time, higher = longer survival. The method, boiled down:
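Mice carrying the transplanted tumor received test compound or vehicle. Survival was recorded in each group, and the value is the treated-group measurement divided by that of the vehicle-treated control group.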

Where [1] appears, read: dose: 50.0 mg/kg/injection, schedule: Q01DX009 (ip), vehicle: saline with Tween-80.
Where [2] appears, read: dose: 100.0 mg/kg/injection, schedule: Q01DX009 (ip), vehicle: saline with Tween-80.
Where [3] appears, read: dose: 200.0 mg/kg/injection, schedule: Q01DX009 (ip), vehicle: saline with Tween-80.
The mark [4] stands for this setting: dose: 50.0 mg/kg/injection, schedule: Q01DX005 (ip), vehicle: Klucel (hydroxypropylcellulose) (HPC).
The mark [5] stands for this setting: dose: 100.0 mg/kg/injection, schedule: Q01DX005 (ip), vehicle: Klucel (hydroxypropylcellulose) (HPC).
[6] abbreviates: dose: 200.0 mg/kg/injection, schedule: Q01DX005 (ip), vehicle: Klucel (hydroxypropylcellulose) (HPC).
Setting [7] is: dose: 6.25 mg/kg/injection, schedule: Q01DX005 (ip), vehicle: saline with Tween-80.
The mark [8] stands for this setting: dose: 12.5 mg/kg/injection, schedule: Q01DX005 (ip), vehicle: saline with Tween-80.
Where [9] appears, read: dose: 25.0 mg/kg/injection, schedule: Q01DX005 (ip), vehicle: saline with Tween-80.
Setting [10] is: dose: 50.0 mg/kg/injection, schedule: Q01DX005 (ip), vehicle: saline with Tween-80.
[11] abbreviates: dose: 50.0 mg/kg/injection, schedule: Q01DX009 (ip), vehicle: Klucel (hydroxypropylcellulose) (HPC).
The mark [12] stands for this setting: dose: 100.0 mg/kg/injection, schedule: Q01DX009 (ip), vehicle: Klucel (hydroxypropylcellulose) (HPC).
[13] abbreviates: dose: 100.0 mg/kg/injection, schedule: Q01DX005 (ip), vehicle: saline with Tween-80.
Where [14] appears, read: dose: 200.0 mg/kg/injection, schedule: Q01DX009 (ip), vehicle: Klucel (hydroxypropylcellulose) (HPC).

Where “and” joins values, the source holds several entries; their conditions need not be identical. Equal values may be shown once. Inconclusive results and toxic doses are left out.

`CC(=O)CC(=O)CCCCCCCCCCCC(=O)O`: the T/C was 94 % of control under setting [1], 98 % of control under setting [2] and 103 % of control under setting [3].
The corresponding values for `O=C(OC(c1ccccc1)c1ccccc1)c1ccc([N+](=O)[O-])cc1` are 101 % of control, 106 % of control and 108 % of control.
As to `CC(=O)Oc1cc2c(cc1OC(C)=O)C(=O)CCC=C2`, the T/C is, setting by setting: (dose: 100.0 mg/kg/injection, schedule: Q04DX003 (ip), vehicle: saline sonified) 110 % of control; (dose: 200.0 mg/kg/injection, schedule: Q04DX003 (ip), vehicle: saline sonified) 100 % of control; (dose: 400.0 mg/kg/injection, schedule: Q04DX003 (ip), vehicle: saline sonified) 100 % of control.
In the case of `Cc1cc2c(cc1C)NC(C)CC(=O)N2` (centres undefined), the T/C is 109 % of control (dose: 100.0 mg/kg/injection, schedule: Q04DX003 (ip), vehicle: saline with Tween-80) and 95 % of control (dose: 200.0 mg/kg/injection, schedule: Q04DX003 (ip), vehicle: saline with Tween-80).
As to `Nc1nc2c(C(=O)N3CCCC3)nnn2c2ccccc12`, the T/C reads like this: under setting [1], 93 % of control; under setting [2], 94 % of control.
As to `CCCCN(CCCC)CC(O)c1c(OC)c2cc(Cl)ccc2c2ccc(Cl)cc12` (centres undefined), the T/C reads like this: (dose: 25.0 mg/kg/injection, schedule: Q01DX009 (ip), vehicle: saline with Tween-80) 94 % of control; under setting [1], 100 % of control.
For the molecule `CC(C)(C)N1COCCOC1`, the T/C under setting [2] was 118 % of control.
Take `Cc1ccc2c(c1)C(O)(CC(=O)c1ccccn1)C(=O)N2` (centres undefined): the T/C by setting is: (dose: 60.0 mg/kg/injection, schedule: Q01DX005 (ip), vehicle: Klucel (hydroxypropylcellulose) (HPC)) 104 % of control; (dose: 120.0 mg/kg/injection, schedule: Q01DX005 (ip), vehicle: Klucel (hydroxypropylcellulose) (HPC)) 97 % of control; (dose: 240.0 mg/kg/injection, schedule: Q01DX005 (ip), vehicle: Klucel (hydroxypropylcellulose) (HPC)) 104 % of control.
Regarding `CCCCOC(=O)CC(O)C(=O)OCCCC` (centres undefined), the T/C by setting is: under setting [1], 109 % of control; under setting [2], 119 % of control; under setting [3], 114 % of control.
In the case of `Cc1cnc(Sc2ncccn2)c(C(=O)O)c1[N+](=O)[O-]`, the T/C was 101 % of control under setting [4], 99 % of control under setting [5] and 100 % of control under setting [6].
Take `Cc1cc2ccccc2c[n+]1CCCCCCCCI`: the T/C was 110 % of control under setting [7], 115 % of control under setting [8], 110 % of control under setting [9] and 108 % of control under setting [10].
Turning to `CC1(C)CC(=O)c2c(ncc3cc4c(cc23)OCO4)C1`, the T/C is, setting by setting: (dose: 100.0 mg/kg/injection, schedule: Q04DX002 (ip), vehicle: saline with Tween-80) 110 % of control; (dose: 200.0 mg/kg/injection, schedule: Q04DX002 (ip), vehicle: saline with Tween-80) 118 % of control.
For `Nc1nc(F)nc2c1ncn2CC(O)CO` (centres undefined), the T/C is 100 % of control (dose: 50.0 mg/kg/injection, schedule: Q01DX005 (ip), vehicle: distilled water + alcohol); 101 % of control (dose: 100.0 mg/kg/injection, schedule: Q01DX005 (ip), vehicle: distilled water + alcohol); 95 % of control (dose: 200.0 mg/kg/injection, schedule: Q01DX005 (ip), vehicle: distilled water + alcohol).
On to `Cc1nnc(-n2cccc2)s1`, for which the T/C was 105 % of control (dose: 12.5 mg/kg/injection, schedule: Q01DX009 (ip), vehicle: Klucel (hydroxypropylcellulose) (HPC)); 104 % of control and 95 % of control (dose: 25.0 mg/kg/injection, schedule: Q01DX009 (ip), vehicle: Klucel (hydroxypropylcellulose) (HPC)); 100 % of control and 106 % of control under setting [11]; 100 % of control and 111 % of control under setting [12].
Take `Clc1cc2nc[nH]c2cc1Cl`: the T/C under setting [1] was 101 % of control and the T/C under setting [2] is 90 % of control.
As to `Cc1cn(C23CC4CC(CC(C4)C2)C3)c(=O)[nH]c1=O`, the T/C under setting [4] is 101 % of control, the T/C under setting [5] was 101 % of control and the T/C under setting [6] was 97 % of control.
For the molecule `COC(=O)c1ccc(CSc2ccccc2NC(=S)Nc2cccc(C(F)(F)F)c2)o1`, the T/C under setting [7] was 104 % of control, the T/C under setting [8] was 100 % of control and the T/C under setting [9] is 98 % of control.
Consider `Cc1ccc(C(=Nc2ccccc2)N=P(c2ccccc2)(c2ccccc2)c2ccccc2)cc1`, for which the T/C by setting is: under setting [9], 103 % of control; under setting [10], 113 % of control and 122 % of control; under setting [13], 120 % of control.
As for `O=c1n(-c2ccccc2)c(=O)n2c(=O)n(-c3ccccc3)c(=O)n12`, the T/C by setting is: under setting [11], 105 % of control; under setting [12], 93 % of control; under setting [14], 89 % of control.
Turning to `O=C1C2C(C(=O)N1c1ccc(OCc3ccccc3)cc1)C1c3ccccc3C2C2CCCCN21` (centres undefined), the T/C by setting is: (dose: 3.13 mg/kg/injection, schedule: Q01DX009 (ip), vehicle: water) 100 % of control; (dose: 6.25 mg/kg/injection, schedule: Q01DX009 (ip), vehicle: water) 105 % of control; (dose: 12.5 mg/kg/injection, schedule: Q01DX009 (ip), vehicle: water) 109 % of control; (dose: 25.0 mg/kg/injection, schedule: Q01DX009 (ip), vehicle: water) 111 % of control.
With `Cn1/c(=N\N=C\c2ccccc2OCCO)sc2ccccc21`, the T/C is 103 % of control (dose: 50.0 mg/kg/injection, schedule: Q01DX009 (ip), vehicle: saline + alcohol); 100 % of control (dose: 100.0 mg/kg/injection, schedule: Q01DX009 (ip), vehicle: saline + alcohol); 101 % of control (dose: 200.0 mg/kg/injection, schedule: Q01DX009 (ip), vehicle: saline + alcohol).
For `CCCCCCCCCCCCCCCc1c(NC(C)(CC(C)(C)O)[P+](=O)O)c(=O)n(C)n1C` (centres undefined), the T/C is, setting by setting: (dose: 50.0 mg/kg/injection, schedule: Q01DX009 (ip), vehicle: saline) 96 % of control; (dose: 100.0 mg/kg/injection, schedule: Q01DX009 (ip), vehicle: saline) 88 % of control.
For `O=C1CCSc2ccccc21`, the T/C runs as follows: under setting [2], 95 % of control; under setting [3], 109 % of control.
On to `CC(C)(C)c1cc(C(=O)O)c2soc(=O)c2c1`, for which the T/C is 106 % of control under setting [11], 109 % of control under setting [12] and 111 % of control under setting [14].
As for `NC(=O)CNCc1ccccc1`, the T/C is 94 % of control under setting [10]; 99 % of control under setting [13]; 94 % of control (dose: 200.0 mg/kg/injection, schedule: Q01DX005 (ip), vehicle: saline with Tween-80).
